{
  "source": "ChEMBL document CHEMBL2074475",
  "about": "“Uptake of enalapril and expression of organic anion transporting polypeptide 1 in zonal, isolated rat hepatocytes” (Drug Metab Dispos, 2000)",
  "type_in_all_cases": "functional, cell-based",
  "key": {"[1]": {"biological_target": "T1, Solute carrier organic anion transporter family member 1A1 (Rattus norvegicus, UniProt P46720)", "T1 sequence (P46720 whole entry)": "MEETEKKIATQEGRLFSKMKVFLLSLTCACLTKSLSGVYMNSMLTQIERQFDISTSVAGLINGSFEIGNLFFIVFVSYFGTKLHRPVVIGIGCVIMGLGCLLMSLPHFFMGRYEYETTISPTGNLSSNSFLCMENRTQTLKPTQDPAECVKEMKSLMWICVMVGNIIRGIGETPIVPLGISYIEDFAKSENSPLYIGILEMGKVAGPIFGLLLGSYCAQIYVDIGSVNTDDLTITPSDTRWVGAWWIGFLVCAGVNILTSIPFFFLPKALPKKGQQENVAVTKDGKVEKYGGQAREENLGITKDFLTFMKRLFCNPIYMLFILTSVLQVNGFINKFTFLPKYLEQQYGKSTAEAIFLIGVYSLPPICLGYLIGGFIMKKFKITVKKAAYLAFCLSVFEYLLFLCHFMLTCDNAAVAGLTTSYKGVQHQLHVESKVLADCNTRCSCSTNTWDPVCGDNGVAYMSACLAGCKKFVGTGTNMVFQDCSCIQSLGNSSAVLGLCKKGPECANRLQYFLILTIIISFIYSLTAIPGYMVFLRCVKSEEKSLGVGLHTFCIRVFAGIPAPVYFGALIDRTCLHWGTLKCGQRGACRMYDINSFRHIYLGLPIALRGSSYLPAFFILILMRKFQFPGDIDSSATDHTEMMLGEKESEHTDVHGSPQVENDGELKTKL", "assay": "TP_TRANSPORTER: uptake in Oatp1-expressing HeLa cells", "details": "human"}, "[2]": {"biological_target": "T2, Solute carrier organic anion transporter family member 1A2 (Homo sapiens, UniProt P46721)", "T2 sequence (P46721 whole entry)": "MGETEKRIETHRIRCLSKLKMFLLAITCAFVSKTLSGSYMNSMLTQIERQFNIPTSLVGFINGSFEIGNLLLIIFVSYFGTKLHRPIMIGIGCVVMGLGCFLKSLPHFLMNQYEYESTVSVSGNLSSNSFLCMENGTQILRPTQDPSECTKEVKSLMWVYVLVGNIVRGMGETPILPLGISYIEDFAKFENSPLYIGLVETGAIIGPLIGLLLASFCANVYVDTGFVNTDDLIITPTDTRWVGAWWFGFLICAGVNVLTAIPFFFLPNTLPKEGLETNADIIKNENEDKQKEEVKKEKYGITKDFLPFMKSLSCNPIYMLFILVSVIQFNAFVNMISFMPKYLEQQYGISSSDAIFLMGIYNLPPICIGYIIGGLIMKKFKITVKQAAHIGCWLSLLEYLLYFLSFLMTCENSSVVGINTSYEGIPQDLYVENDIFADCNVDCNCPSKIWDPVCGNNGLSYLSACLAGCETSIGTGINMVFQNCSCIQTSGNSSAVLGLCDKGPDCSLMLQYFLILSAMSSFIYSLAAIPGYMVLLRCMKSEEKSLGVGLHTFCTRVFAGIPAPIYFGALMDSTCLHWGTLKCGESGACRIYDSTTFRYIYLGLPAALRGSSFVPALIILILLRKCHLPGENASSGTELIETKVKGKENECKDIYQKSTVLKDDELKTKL", "assay": "TP_TRANSPORTER: uptake in OATP-expressing HeLa cells"}, "[3]": {"biological_target": "T3, Solute carrier organic anion transporter family member 1A4 (Rattus norvegicus, UniProt O35913)", "T3 sequence (O35913 whole entry)": "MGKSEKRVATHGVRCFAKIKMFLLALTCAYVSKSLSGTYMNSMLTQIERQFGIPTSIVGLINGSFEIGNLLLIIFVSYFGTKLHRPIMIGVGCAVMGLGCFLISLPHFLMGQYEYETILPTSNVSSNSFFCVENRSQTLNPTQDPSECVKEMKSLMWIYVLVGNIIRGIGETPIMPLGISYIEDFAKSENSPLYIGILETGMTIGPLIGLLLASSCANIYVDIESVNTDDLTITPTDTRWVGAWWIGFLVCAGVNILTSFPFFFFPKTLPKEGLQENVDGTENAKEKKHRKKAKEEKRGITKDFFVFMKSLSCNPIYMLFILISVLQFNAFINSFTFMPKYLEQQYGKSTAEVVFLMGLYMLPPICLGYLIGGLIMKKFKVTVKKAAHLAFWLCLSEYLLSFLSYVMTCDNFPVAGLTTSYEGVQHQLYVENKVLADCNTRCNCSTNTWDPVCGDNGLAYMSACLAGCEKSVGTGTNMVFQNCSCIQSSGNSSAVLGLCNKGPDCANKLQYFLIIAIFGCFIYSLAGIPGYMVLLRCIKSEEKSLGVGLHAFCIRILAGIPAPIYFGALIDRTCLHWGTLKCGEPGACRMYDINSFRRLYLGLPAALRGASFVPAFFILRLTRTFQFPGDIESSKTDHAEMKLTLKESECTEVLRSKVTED", "assay": "TP_TRANSPORTER: uptake in Oatp2-expressing HeLa cells", "details": "human"}},
  "data": [
    {"smiles": "CCOC(=O)[C@H](CCc1ccccc1)N[C@@H](C)C(=O)N1CCC[C@H]1C(=O)O", "note": "[ENALAPRIL]", "values": [
      {"measurement": "Activity", "setting": "[1]", "result": "substrate [+]"},
      {"measurement": "Activity", "setting": "[2]", "result": "is not a substrate [-]"},
      {"measurement": "Activity", "setting": "[3]", "result": "is not a substrate [-]"}
    ]}
  ]
}
